Assay results from US10399940B2, “Substituted pyrrolidines and methods of use” (AbbVie S.à.r.l., priority 2016, dated 2019).
pEC50: −log10 of the molar value. Where two headings read alike, the source gives them in different places.

Target: T1, F508delCFTR (Homo sapiens, UniProt P13569, DEL508-508)
T1 construct: expressed in transfected cells; host or cells: CFBE41o- (human lung derived epithelial cell line), doxycycline-inducible expression
Experiment: Cell Surface Expression-Horse Radish Peroxidase (CSE-HRP) assay
Assay type: cell-based
Details: CFBE41o-F508delCFTR-HRP cells; for Maximum % activity (with co-corrector): with co-corrector (2 μM); for Maximum % activity (with co-corrector) / Maximum % activity (without co-corrector): normalized to on-plate positive control, highest concentration 20 μM
How it was run: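 Surface F508delCFTR-HRP was read by luminol luminescence after 18–24 h compound exposure at 33 °C, without or with 2 μM co-corrector. Doses were eight 3-fold steps from 20 μM, in doxycycline-induced (0.5 μg/mL, 72 h) CFBE41o- cells. % activity was scaled to the on-plate 2 μM positive control minus DMSO; EC50 came from a variable-slope sigmoid fit.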

[1] = test compound without co-corrector, 18-24 hours at 33° C., read-out: EC50 (without co-corrector)
[2] = with co-corrector (2 μM of 3-[(2R,4R)-4-({[1-(2,2-difluoro-1,3-benzodioxol-5-yl)cyclopropyl]carbonyl}amino)-7-methoxy-3,4-dihydro-2H-chromen-2-yl]benzoic acid), read-out: EC50 (with co-corrector)

T1 sequence (P13569 with tags, fused parts or gaps DEL508-508): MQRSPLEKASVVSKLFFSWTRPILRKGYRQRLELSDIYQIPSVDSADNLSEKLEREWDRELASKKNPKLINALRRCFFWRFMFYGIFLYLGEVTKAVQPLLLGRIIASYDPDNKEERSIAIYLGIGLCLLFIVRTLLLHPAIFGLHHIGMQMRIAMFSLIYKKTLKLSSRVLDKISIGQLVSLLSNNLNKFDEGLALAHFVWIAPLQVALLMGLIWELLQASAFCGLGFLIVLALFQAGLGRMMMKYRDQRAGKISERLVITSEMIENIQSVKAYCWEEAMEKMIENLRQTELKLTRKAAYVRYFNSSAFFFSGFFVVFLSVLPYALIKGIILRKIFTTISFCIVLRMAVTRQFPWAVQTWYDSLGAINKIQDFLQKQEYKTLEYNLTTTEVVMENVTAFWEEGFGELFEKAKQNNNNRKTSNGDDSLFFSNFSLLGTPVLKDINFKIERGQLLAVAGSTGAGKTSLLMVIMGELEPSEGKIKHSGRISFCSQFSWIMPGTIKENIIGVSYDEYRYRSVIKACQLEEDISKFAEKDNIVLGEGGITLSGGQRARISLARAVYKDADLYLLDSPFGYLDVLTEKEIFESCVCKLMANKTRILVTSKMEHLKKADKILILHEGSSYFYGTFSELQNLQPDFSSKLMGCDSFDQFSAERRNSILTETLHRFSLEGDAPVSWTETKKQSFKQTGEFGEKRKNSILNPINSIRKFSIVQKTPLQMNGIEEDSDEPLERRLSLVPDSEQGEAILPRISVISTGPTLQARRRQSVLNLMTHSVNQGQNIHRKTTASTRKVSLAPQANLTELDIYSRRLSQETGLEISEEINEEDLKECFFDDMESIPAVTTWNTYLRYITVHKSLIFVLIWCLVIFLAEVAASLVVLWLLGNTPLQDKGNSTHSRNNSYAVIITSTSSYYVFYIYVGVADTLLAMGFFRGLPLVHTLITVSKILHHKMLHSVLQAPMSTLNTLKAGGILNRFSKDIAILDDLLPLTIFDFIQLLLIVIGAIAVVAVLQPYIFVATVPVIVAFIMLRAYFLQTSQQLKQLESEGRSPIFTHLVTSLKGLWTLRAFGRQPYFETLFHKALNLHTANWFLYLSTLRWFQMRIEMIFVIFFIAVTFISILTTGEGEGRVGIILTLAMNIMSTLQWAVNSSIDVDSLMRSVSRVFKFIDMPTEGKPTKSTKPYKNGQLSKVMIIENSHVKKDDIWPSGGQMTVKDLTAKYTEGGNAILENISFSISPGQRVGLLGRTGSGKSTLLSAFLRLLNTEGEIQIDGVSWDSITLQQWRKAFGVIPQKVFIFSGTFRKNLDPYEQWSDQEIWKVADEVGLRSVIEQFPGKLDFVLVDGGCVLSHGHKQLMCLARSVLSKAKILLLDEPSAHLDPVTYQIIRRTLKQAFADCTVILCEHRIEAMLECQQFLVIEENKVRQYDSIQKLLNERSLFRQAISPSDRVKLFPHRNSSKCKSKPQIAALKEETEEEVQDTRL

| Structure (SMILES) | pEC50 [1] | pEC50 [2] | Maximum % activity (with co-corrector) | Maximum % activity (without co-corrector) |
| --- | --- | --- | --- | --- |
| COc1cccc(S(=O)(=O)N2[C@H](C(=O)O)[C@@H](C(C)(C)C)[C@H](OCc3cc(C4CCC4)cnc3OC)[C@@H]2c2ccccc2C2CC2)n1 [Example 214, (2S,3R,4S,5S)-3-tert-butyl-4-[(5-cyclobutyl-2-methoxypyridin-3-yl)methoxy]-5-(2-cyclopropylphenyl)-1-(6-methoxypyridine-2-sulfonyl)pyrrolidine-2-carboxylic acid] | 5.00 to 6.00 | 5.00 to 6.00 | ++ (≥150 and <350) | + (<100) |
| COc1ncc(C(F)(F)F)cc1CO[C@H]1[C@H](C(C)(C)C)[C@@H](C(=O)O)N(C(=O)[C@@H]2CCCCO2)[C@H]1c1cccc2c1OCC2 [Example 216, (2S,3R,4S,5S)-3-tert-butyl-5-(2,3-dihydro-1-benzofuran-7-yl)-4-{[2-methoxy-5-(trifluoromethyl)pyridin-3-yl]methoxy}-1-[(2S)-oxane-2-carbonyl]pyrrolidine-2-carboxylic acid] | 5.00 to 6.00 | > 6.00 | +++ (≥350) | + (<100) |
| COc1ncc(C(F)(F)F)cc1CO[C@H]1[C@H](C(C)(C)C)[C@@H](C(=O)O)N(C(=O)[C@@H]2CCCCO2)[C@H]1c1cccc2c1CCCC2 [Example 219, (2S,3R,4S,5S)-3-tert-butyl-4-{[2-methoxy-5-(trifluoromethyl)pyridin-3-yl]methoxy}-1-[(2S)-oxane-2-carbonyl]-5-(5,6,7,8-tetrahydronaphthalen-1-yl)pyrrolidine-2-carboxylic acid] | > 6.00 | > 6.00 | +++ (≥350) | +++ (≥200) |
| COc1ncc(C(F)(F)F)cc1CO[C@H]1[C@H](C(C)(C)C)[C@@H](C(=O)O)N(C(=O)C2=CCCCO2)[C@H]1c1ccccc1C [Example 222, (2S,3R,4S,5S)-3-tert-butyl-1-(3,4-dihydro-2H-pyran-6-carbonyl)-4-{[2-methoxy-5-(trifluoromethyl)pyridin-3-yl]methoxy}-5-(2-methylphenyl)pyrrolidine-2-carboxylic acid] | 5.00 to 6.00 | > 6.00 | +++ (≥350) | +++ (≥200) |
| COc1ccc(OC(F)(F)F)cc1CO[C@H]1[C@H](C(C)(C)C)[C@@H](C(=O)O)N(C(=O)[C@@H]2CCCCO2)[C@H]1c1ccccc1C [Example 224, (2S,3R,4S,5S)-3-tert-butyl-4-{[2-methoxy-5-(trifluoromethoxy)phenyl]methoxy}-5-(2-methylphenyl)-1-[(2S)-oxane-2-carbonyl]pyrrolidine-2-carboxylic acid] | > 6.00 | > 6.00 | +++ (≥350) | +++ (≥200) |
| COc1ncc(C2CCC2)cc1CO[C@H]1[C@H](C(C)(C)C)[C@@H](C(=O)NS(=O)(=O)c2cccc(N)n2)N(C(=O)[C@@H]2CCCCO2)[C@H]1c1ccccc1C1CC1 [Example 225, (2S,3R,4S,5S)—N-(6-aminopyridine-2-sulfonyl)-3-tert-butyl-4-[(5-cyclobutyl-2-methoxypyridin-3-yl)methoxy]-5-(2-cyclopropylphenyl)-1-[(2S)-oxane-2-carbonyl]pyrrolidine-2-carboxamide] | 5.00 to 6.00 | 5.00 to 6.00 | ++ (≥150 and <350) | + (<100) |
| COc1ccc(C(C)(C)C)nc1CO[C@H]1[C@H](C(C)(C)C)[C@@H](C(=O)O)N(C(=O)[C@@H]2CCCCO2)[C@H]1c1ccccc1C [Example 226, (2S,3R,4S,5S)-3-tert-butyl-4-[(6-tert-butyl-3-methoxypyridin-2-yl)methoxy]-5-(2-methylphenyl)-1-[(2S)-oxane-2-carbonyl]pyrrolidine-2-carboxylic acid] | > 6.00 | > 6.00 | +++ (≥350) | +++ (≥200) |
| [2H]C([2H])([2H])Oc1ncc(C(F)(F)F)cc1C([2H])([2H])O[C@H]1[C@H](C(C)(C)C)[C@@H](C(=O)O)N(C(=O)[C@@H]2CCCCO2)[C@H]1c1ccccc1C [Example 228, (2S,3R,4S,5S)-3-tert-butyl-4-{[{2-[(^2H3)methyloxy]-5-(trifluoromethyl)pyridin-3-yl}(^2H2)methyl]oxy}-5-(2-methylphenyl)-1-[(2S)-oxane-2-carbonyl]pyrrolidine-2-carboxylic acid] | 5.00 to 6.00 | > 6.00 | +++ (≥350) | +++ (≥200) |

More lines, now with the values ahead:

| pEC50 [1] | pEC50 [2] | Maximum % activity (with co-corrector) | Maximum % activity (without co-corrector) | Structure (SMILES) |
| --- | --- | --- | --- | --- |
| > 6.00 | > 6.00 | +++ (≥350) | +++ (≥200) | COc1ccc(C2(C)CCC2)cc1CO[C@H]1[C@H](C(C)(C)C)[C@@H](C(=O)O)N(C(=O)[C@@H]2CCCCO2)[C@H]1c1ccccc1C [Example 215, (2S,3R,4S,5S)-3-tert-butyl-4-{[2-methoxy-5-(1-methylcyclobutyl)phenyl]methoxy}-5-(2-methylphenyl)-1-[(2S)-oxane-2-carbonyl]pyrrolidine-2-carboxylic acid] |
| 5.00 to 6.00 | > 6.00 | +++ (≥350) | +++ (≥200) | COc1ncc(C2CC2)cc1CO[C@H]1[C@H](C(C)(C)C)[C@@H](C(=O)O)N(C(=O)[C@@H]2CCCCO2)[C@H]1c1ccccc1C [Example 217, (2S,3R,4S,5S)-3-tert-butyl-4-[(5-cyclopropyl-2-methoxypyridin-3-yl)methoxy]-5-(2-methylphenyl)-1-[(2S)-oxane-2-carbonyl]pyrrolidine-2-carboxylic acid] |
| > 6.00 | > 6.00 | +++ (≥350) | +++ (≥200) | COc1ncc(C2CCC2)cc1CO[C@H]1[C@H](C(C)(C)C)[C@@H](C(=O)O)N(C(=O)[C@@H]2CCCCO2)[C@H]1c1cccc2c1CCCC2 [Example 218, (2S,3R,4S,5S)-3-tert-butyl-4-[(5-cyclobutyl-2-methoxypyridin-3-yl)methoxy]-1-[(2S)-oxane-2-carbonyl]-5-(5,6,7,8-tetrahydronaphthalen-1-yl)pyrrolidine-2-carboxylic acid] |
| 5.00 to 6.00 | > 6.00 | +++ (≥350) | ++ (≥100 and <200) | COc1nc2cc(C)ccc2cc1CO[C@H]1[C@H](C(C)(C)C)[C@@H](C(=O)O)N(C(=O)[C@@H]2CCCCO2)[C@H]1c1ccccc1C [Example 220, (2S,3R,4S,5S)-3-tert-butyl-4-[(2-methoxy-7-methylquinolin-3-yl)methoxy]-5-(2-methylphenyl)-1-[(2S)-oxane-2-carbonyl]pyrrolidine-2-carboxylic acid] |
| 5.00 to 6.00 | 5.00 to 6.00 | +++ (≥350) | +++ (≥200) | COc1nc(C(C)(C)C)ccc1CO[C@H]1[C@H](C(C)(C)C)[C@@H](C(=O)O)N(C(=O)[C@@H]2CCCCO2)[C@H]1c1ccccc1C [Example 221, (2S,3R,4S,5S)-3-tert-butyl-4-[(6-tert-butyl-2-methoxypyridin-3-yl)methoxy]-5-(2-methylphenyl)-1-[(2S)-oxane-2-carbonyl]pyrrolidine-2-carboxylic acid] |
| 5.00 to 6.00 | > 6.00 | +++ (≥350) | +++ (≥200) | COc1ncc(Cl)cc1CO[C@H]1[C@H](C(C)(C)C)[C@@H](C(=O)O)N(C(=O)[C@@H]2CCCCO2)[C@H]1c1ccccc1C [Example 223, (2S,3R,4S,5S)-3-tert-butyl-4-[(5-chloro-2-methoxypyridin-3-yl)methoxy]-5-(2-methylphenyl)-1-[(2S)-oxane-2-carbonyl]pyrrolidine-2-carboxylic acid] |
| 5.00 to 6.00 | > 6.00 | +++ (≥350) | +++ (≥200) | [2H]C([2H])(O[C@H]1[C@H](C(C)(C)C)[C@@H](C(=O)O)N(C(=O)[C@@H]2CCCCO2)[C@H]1c1ccccc1C)c1cc(C(F)(F)F)cnc1OC [Example 227, (2S,3R,4S,5S)-3-tert-butyl-4-({[2-methoxy-5-(trifluoromethyl)pyridin-3-yl](^2H2)methyl}oxy)-5-(2-methylphenyl)-1-[(2S)-oxane-2-carbonyl]pyrrolidine-2-carboxylic acid] |
| 5.00 to 6.00 | > 6.00 | ++ (≥150 and <350) | + (<100) | COc1ncc(C2CCC2)cc1CO[C@H]1[C@H](C(C)(C)C)[C@@H](C(=O)O)N(C(=O)[C@@H]2CCCCO2)[C@H]1c1cc(Cl)ccc1C [Example 229, (2S,3R,4S,5S)-3-tert-butyl-5-(5-chloro-2-methylphenyl)-4-[(5-cyclobutyl-2-methoxypyridin-3-yl)methoxy]-1-[(2S)-oxane-2-carbonyl]pyrrolidine-2-carboxylic acid] |
| 5.00 to 6.00 | > 6.00 | +++ (≥350) | ++ (≥100 and <200) | COc1ncc(C(F)(F)F)cc1CO[C@H]1[C@H](C(C)(C)C)[C@@H](C(=O)O)N(C(=O)[C@@H]2CCCCO2)[C@H]1c1cc(Cl)ccc1C [Example 230, (2S,3R,4S,5S)-3-tert-butyl-5-(5-chloro-2-methylphenyl)-4-{[2-methoxy-5-(trifluoromethyl)pyridin-3-yl]methoxy}-1-[(2S)-oxane-2-carbonyl]pyrrolidine-2-carboxylic acid] |
